Where two headings read alike, the source gives them in different places.
Target: HPK1 (Homo sapiens, UniProt Q92918)
Experiment: HPK1 Lantha Binding Assay ("Lanth")
Outline: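 Compounds in an 11-point 5-fold series were preincubated 1 h at 23 C with 2 nM kinase plus 2 nM Eu-anti-GST antibody. Then 15 nM Tracer222 was added for another hour, and time-resolved FRET was read at 665/615 nm. Ki values come from a Morrison tight-binding model that uses the tracer Kd.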

[1] = Table B1-1, read-out: HPK1 Ki (μM) (Lanth)
[2] = Table B1-2, read-out: HPK1 Ki, L = Lanth

Chain of HPK1 (Q92918 whole entry, looked up): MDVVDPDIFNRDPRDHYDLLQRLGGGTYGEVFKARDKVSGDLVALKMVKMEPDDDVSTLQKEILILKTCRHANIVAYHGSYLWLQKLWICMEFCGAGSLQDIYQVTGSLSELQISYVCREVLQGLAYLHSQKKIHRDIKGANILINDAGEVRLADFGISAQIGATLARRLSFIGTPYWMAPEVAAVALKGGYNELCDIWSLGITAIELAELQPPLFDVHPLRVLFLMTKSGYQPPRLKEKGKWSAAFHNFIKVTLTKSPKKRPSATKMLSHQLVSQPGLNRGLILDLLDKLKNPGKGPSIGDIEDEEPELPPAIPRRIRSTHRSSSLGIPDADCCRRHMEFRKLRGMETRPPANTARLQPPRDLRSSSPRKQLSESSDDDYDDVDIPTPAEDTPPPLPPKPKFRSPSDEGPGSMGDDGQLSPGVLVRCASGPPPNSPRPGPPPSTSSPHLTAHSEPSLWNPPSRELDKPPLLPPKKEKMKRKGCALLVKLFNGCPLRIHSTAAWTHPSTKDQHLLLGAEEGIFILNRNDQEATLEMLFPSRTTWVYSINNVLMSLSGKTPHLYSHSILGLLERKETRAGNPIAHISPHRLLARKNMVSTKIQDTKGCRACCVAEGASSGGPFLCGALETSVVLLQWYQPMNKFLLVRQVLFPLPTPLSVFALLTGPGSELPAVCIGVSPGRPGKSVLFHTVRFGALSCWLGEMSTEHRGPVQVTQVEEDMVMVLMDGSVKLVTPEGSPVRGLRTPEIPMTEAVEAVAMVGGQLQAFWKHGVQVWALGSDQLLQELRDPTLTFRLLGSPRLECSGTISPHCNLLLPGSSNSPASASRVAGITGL

SMILES	Ki [1] [nM]	Ki [2] [nM]
CNC(=O)Cn1cc(Nc2cc3cc(-c4cnccc4C)nc(N)c3cn2)cn1 [Compound 184, 2-[4-[[8-amino-6-(4-methyl-3-pyridyl)-2,7-naphthyridin-3-yl]amino]pyrazol-1-yl]-N-methyl-acetamide]	2.5	–
Cc1ccncc1-c1nc(N)c2cnc(NC(=O)[C@H]3C[C@@H]3CC#N)cc2c1Br (racemic) [Compound 210, (+/−)-N-(8-amino-5-bromo-6-(4-methylpyridin-3-yl)-2,7-naphthyridin-3-yl)-2-(cyanomethyl)cyclopropanecarboxamide]	0.258	–
Cc1cc2[nH]c(=O)oc2cc1-c1cc2cc(NC(=O)C3C[C@H]3C#N)ncc2c(N)n1 (mixture of isomers) [Compound 135, (±)-((trans-)-N-(8-amino-6-(5-methyl-2-oxo-2,3-dihydrobenzo[d]oxazol-6-yl)-2,7-naphthyridin-3-yl)-2-cyanocyclopropanecarboxamide]	0.25	–
Cc1ccncc1-c1cc2cc(Nc3cnn([C@H]4CCN(C5COC5)C[C@@H]4O)c3)ncc2c(N)n1 (racemic) [Compound 220, (+/−)-trans-4-(4-(8-amino-6-(4-methylpyridin-3-yl)-2,7-naphthyridin-3-ylamino)-1H-pyrazol-1-yl)-1-(oxetan-3-yl)piperidin-3-ol]	0.592	–
Cc1ccncc1-c1cc2cc(NC(=O)NC(C)CO)ncc2c(N)n1 (stereo not drawn) [Compound 117, l-(8-amino-6-(4-methylpyridin-3-yl)-2,7-naphthyridin-3-yl)-3-(1-hydroxypropan-2-yl)urea]	8.47	–
N#CCc1ccncc1-c1cc2cc(NC(=O)[C@H]3C[C@@H]3C#N)ncc2c(N)n1 (racemic) [Compound 227, (+/−)-trans-N-(8-amino-6-(4-(cyanomethyl)pyridin-3-yl)-2,7-naphthyridin-3-yl)-2-cyanocyclopropanecarboxamide]	38.7	–
CC(C)(O)Cc1ccncc1-c1cc2cc(NC(=O)[C@H]3C[C@@H]3C#N)ncc2c(N)n1 (racemic) [Compound 225, (+/−)-trans-N-(8-amino-6-(4-(2-hydroxy-2-methylpropyl)pyridin-3-yl)-2,7-naphthyridin-3-yl)-2-cyanocyclopropanecarboxamide]	84.2	–
COCc1ccncc1-c1cc2cc(NC(=O)[C@H]3C[C@@H]3C#N)ncc2c(N)n1 (racemic) [Compound 228, (+/−)-trans-N-(8-amino-6-(4-(methoxymethyl)pyridin-3-yl)-2,7-naphthyridin-3-yl)-2-cyanocyclopropanecarboxamide]	11	–
CNC(=O)c1c(C)c(-c2cc3cc(NC(=O)[C@H]4C[C@@H]4C#N)ncc3c(N)n2)c(C)n1C (racemic) [Compound 180, (±)-trans-4-[1-amino-6-[[trans-2-cyanocyclopropanecarbonyl]amino]-2,7-naphthyridin-3-yl]-N,1,3,5-tetramethyl-pyrrole-2-carboxamide]	44	–
Cc1ccncc1-c1cc2cc(NC(=O)NC(C)CO)ncc2c(N)n1 (racemic) [Compound 177, 1-(8-amino-6-(4-methylpyridin-3-yl)-2,7-naphthyridin-3-yl)-3-(1-hydroxypropan-2-yl)urea]	8.5	–
Cc1ccncc1-c1cc2cc(Nc3cc(C(C)O)n(C)n3)ncc2c(N)n1 (racemic) [Compound 221, (+/−)-1-(3-(8-amino-6-(4-methylpyridin-3-yl)-2,7-naphthyridin-3-ylamino)-1-methyl-1H-pyrazol-5-yl)ethanol]	0.026	–

Other lines, results leading:

Ki [1] [nM]	Ki [2] [nM]	SMILES
1.56	–	Cc1c(-c2cc3cc(NC(=O)[C@@H]4C[C@@H]4F)ncc3c(N)n2)cnn1C (racemic) [Compound 2, (±)-cis-N-(8-amino-6-(1,5-dimethyl-1H-pyrazol-4-yl)-2,7-naphthyridin-3-yl)-2-fluorocyclopropanecarboxamide]
1.4	–	Cc1cc2c(cc1-c1cc3cc(NC(=O)[C@H]4C[C@@H]4C#N)ncc3c(N)n1)oc(=O)n2C (racemic) [Compound 142, (±)-trans-N-(8-amino-6-(3,5-dimethyl-2-oxo-2,3-dihydrobenzo[d]oxazol-6-yl)-2,7-naphthyridin-3-yl)-2-cyanocyclopropanecarboxamide]
–	1.9	Cc1cc(-c2ccn(C)n2)ncc1-c1cc2cc(NC(=O)[C@H]3C[C@@H]3c3cnn(C)c3)ncc2c(N)n1 (single isomer, unassigned) [Compound 404]
–	14	Cc1cccc(CC#N)c1-c1cc2cc(NC(=O)[C@H]3C[C@@H]3c3cnn(C)c3)ncc2c(N)n1 (racemic) [Compound 382, (+/−)-trans-N-(8-amino-6-(2-(cyanomethyl)-6-methylphenyl)-2,7-naphthyridin-3-yl)-2-(1-methyl-1H-pyrazol-4-yl)cyclopropane-1-carboxamide]
–	0.78	Cc1ccnc(Cc2ccccc2)c1-c1cc2cc(NC(=O)[C@H]3C[C@@H]3c3cnn(C)c3)ncc2c(N)n1 (racemic) [Compound 427, (+/−)-trans-N-(8-amino-6-(2-benzyl-4-methylpyridin-3-yl)-2,7-naphthyridin-3-yl)-2-(1-methyl-1H-pyrazol-4-yl)cyclopropane-1-carboxamide]
7.21	–	Cc1cc(N)ncc1-c1cc2cc(NC(=O)[C@@H]3C[C@@H]3F)ncc2c(N)n1 (racemic) [Compound 16, (±)-cis-N-(8-amino-6-(6-amino-4-methylpyridin-3-yl)-2,7-naphthyridin-3-yl)-2-fluorocyclopropanecarboxamide]
1.43	–	Cc1cc(C(=O)O)ncc1-c1cc2cc(NC(=O)[C@H]3C[C@@H]3c3cnn(C)c3)ncc2c(N)n1 (racemic) [Compound 342, (±)-trans-5-(1-amino-6-((1S,2S)-2-(1-methyl-1H-pyrazol-4-yl)cyclopropane-1-carboxamido)-2,7-naphthyridin-3-yl)-4-methylpicolinic acid]
2.9	–	Cc1cc(N2CCC(N)C2)ncc1-c1cc2cc(NC(=O)C3CC3F)ncc2c(N)n1 (racemic) [Compound 179, (±)-cis-N-[8-amino-6-[6-[(3S)-3-aminopyrrolidin-1-yl]-4-methyl-3-pyridyl]-2,7-naphthyridin-3-yl]-2-fluoro-cyclopropanecarboxamide]
0.0629	–	Cc1ccncc1-c1cc2cc(NC(=O)[C@@H]3C[C@H]3c3cn[nH]c3)ncc2c(N)n1 (racemic) [Compound 122, (±)-trans-N-[8-amino-6-(4-methyl-3-pyridyl)-2,7-naphthyridin-3-yl]-2-(1H-pyrazol-4-yl)cyclopropanecarboxamide]
–	15	Cc1ccncc1-c1cc2cc(NC(=O)C3CC34CC4)ncc2c(N)n1 (stereo not drawn) [Compound 413, N-(8-amino-6-(4-methylpyridin-3-yl)-2,7-naphthyridin-3-yl)spiro[2.2]pentane-1-carboxamide]
5.9	–	CC(C)c1ccncc1-c1cc2cc(NC(=O)[C@H]3C[C@@H]3C#N)ncc2c(N)n1 (racemic) [Compound 50, trans-N-(8-amino-6-(4-isopropylpyridin-3-yl)-2,7-naphthyridin-3-yl)-2-cyanocyclopropanecarboxamide]
2.05	–	Cc1ccncc1-c1cc2cc(NC(=O)[C@@H]3C[C@H]3C#N)ncc2c(N)n1 (racemic) [Compound 43, trans-N-(8-amino-6-(4-methylpyridin-3-yl)-2,7-naphthyridin-3-yl)-2-cyanocyclopropanecarboxamide]
–	0.25	Cc1ccnc(Cc2ccccc2)c1-c1cc2cc(NC(=O)[C@@H]3C[C@H]3c3cnn(C)c3)ncc2c(N)n1 (single isomer, unassigned) [Compound 397]
